In patent US11738091B2, “Method for terminating cancer cells with an azole-based compound” (Imam Abdulrahman Bin Faisal University, priority 2019, dated 2023):

What was measured:
[1] = test system: HCT-116 cells; experiment: MTT assay of cancer cell viability; conditions: for attenuating cancer cells proliferation (in words) / effect on cancer cell survivability (in words) / comparison among the five conjugates in decreasing cancer cells proliferation: HCT-116; for dose dependence of effect on cancer cells viability: HCT-116, MTT staining; for comparison among the five conjugates in decreasing cancer cells proliferation: versus Conj. 1, Conj. 2 and Conj. 5
Method: CANCER CELL TREATMENTS: Human colorectal carcinoma cells (HCT-116) cells were grown according to a method described in Khan, F. A.; Akhtar, S.; Almohazey, D.; Alomari, M.; Almofty, S. A.; Eliassari, A. “Fluorescent magnetic submicronic polymer (FMSP) nanoparticles induce cell death in human colorectal carcinoma cells” Artif Artif. Cells, Nanomed., Biotechnol. 2018, (doi: 10.1080/21691401.2018.1491476). HCT-116 cells were grown in Dulbecco Modified Eagle Medium (DMEM), 10% fetal bovine serum, L-glutamine, selenium chloride, penicillin, and streptomycin. The cells were cultured in a CO2 incubator (Heracell 150i, Thermo-scientific, USA) at 37° C. under 5% CO2 for 48 to 72 hours. Confluenced cells were seeded into 96-well cell plates and, once the cells became 80% confluenced, the cancer cells were treated with different concentrations ([…]) of Conj. 1, Conj. 2, Conj. 3, Conj. 4, Conj. 5 respectively. […] Each sample was taken in triplicate to obtain a statistical analysis.
CANCER CELLS VIABILITY BY MTT ASSAY: To examine effect of Conj. 1, Conj. 2, Conj. 3, Conj. 4, Conj. 5 on cancer cells, a 3-(4,5-dimethylthiazol-2-yl)-2,5-diphenyltetrazolium bromide (MTT) assay was conducted on the cells. The cancer cells were seeded at 6×10^4 cells/mL concentration in 96-well culture plates containing DMEM, 10% Fetal bovine serum, penicillin, and streptomycin and were incubated in CO2 incubator until the cells were 80% confluenced. The cancer cells were then treated with Conj. 1, Conj. 2, Conj. 3, Conj. 4, Conj. 5 at concentrations of 1.3, 3.26, and 6.5 mg/mL, whereby no conjugate was added in the control groups. A 5.0 mg/mL MTT solution was added into each well, and the cells were again incubated for 4 hours in the CO2 incubator and finally media was changed with the addition of DMSO. The samples were then measured using an ELISA plate reader (Biotek Instruments, USA) at wavelength 570 nm.
The following formula was used to calculate percentage of cell viability: % of Cell viability=[Optical density (O.D) of Conj. 1, Conj. 2, Conj. 3, Conj. 4, or Conj. 5 cells]/[Optical density (O.D) of control cells]×100.
1, Conj. 2, Conj. 3, Conj. 4, Conj. 5 treated groups were calculated. All statistical analyses were completed with GraphPad Prism 6 (GraphPad Software). The difference between control and Conj. 1, Conj. 2, Conj. 3, Conj. 4, Conj. 5 groups by a one-way ANOVA test (*p<0.05, **p<0.01; ***p<0.001) was taken as statistically significant.

[2] = test system: HCT-116 cells; experiment: Cancer cell morphology by inverted microscope; type: cell-based, human; conditions: 48 hours, 200x magnification
Description: Cells, Nanomed., Biotechnol. 2018, (doi: 10.1080/21691401.2018.1491476). […] 1, Conj. 2, Conj. 3, Conj. 4, Conj. 5 respectively.
CANCER CELL MORPHOLOGY: After the treating the HTC-116 cells with Conj. 1, Conj. 2, Conj. 3, Conj. 4, Conj. 5, the cells were observed using an inverted microscope (TS100F Eclipse, Nikon, Japan) to evaluate the anatomical and morphological changes.

## SiO2-3GPS-Atet [Conj. 3]
[1]
  attenuating cancer cells proliferation (in words): highly effective
  effect on cancer cell survivability (in words): profound effects
  dose dependence of effect on cancer cells viability: dose dependent effects
  comparison among the five conjugates in decreasing cancer cells proliferation: more effective
[2]; HCT-116, 1.3 mg/mL
  cancer cell morphology: significant levels of nucleus condensation and nuclear augmentation
[2]; HCT-116, 3.26 mg/mL
  cancer cell morphology: nuclear condensation and augmentation of cancer cells
[2]; HCT-116, 6.5 mg/mL
  cancer cell morphology: significant loss of cell population

## SiO2-3GPS-Tri [Conj. 1]
[1]
  attenuating cancer cells proliferation (in words): highly effective
  effect on cancer cell survivability (in words): profound effects
  dose dependence of effect on cancer cells viability: dose dependent effects
[2]; HCT-116, 1.3 mg/mL
  cancer cell morphology: strong nucleus condensation and nuclear augmentation
[2]; HCT-116, 3.26 mg/mL
  cancer cell morphology: further nucleus condensation and augmentation
[2]; HCT-116, 6.5 mg/mL
  cancer cell morphology: significant loss of cell population

## SiO2-3GPS-Atri [Conj. 2]
[1]
  attenuating cancer cells proliferation (in words): highly effective
  effect on cancer cell survivability (in words): profound effects
  dose dependence of effect on cancer cells viability: dose dependent effects
[2]; HCT-116, 1.3 mg/mL
  cancer cell morphology: strong nucleus condensation and nuclear augmentation
[2]; HCT-116, 3.26 mg/mL
  cancer cell morphology: further nucleus condensation and augmentation
[2]; HCT-116, 6.5 mg/mL
  cancer cell morphology: significant loss of cell population

## SiO2-3GPS-Imi [Conj. 5]
[1]
  attenuating cancer cells proliferation (in words): highly effective
  effect on cancer cell survivability (in words): profound effects
  dose dependence of effect on cancer cells viability: dose dependent effects
[2]; HCT-116, 1.3 mg/mL
  cancer cell morphology: high levels of nucleus condensation and nuclear augmentation
[2]; HCT-116, 3.26 mg/mL
  cancer cell morphology: strong nuclear condensation and augmentation and the beginning of cell membrane disruption and cell death
[2]; HCT-116, 6.5 mg/mL
  cancer cell morphology: significant loss of cell population

## SiO2-3GPS-Btri [Conj. 4]
[1]
  attenuating cancer cells proliferation (in words): highly effective
  effect on cancer cell survivability (in words): profound effects
  dose dependence of effect on cancer cells viability: dose dependent effects
  comparison among the five conjugates in decreasing cancer cells proliferation: more effective
[2]; HCT-116, 1.3 mg/mL
  cancer cell morphology: disintegration of cancer cell bodies
[2]; HCT-116, 3.26 mg/mL
  cancer cell morphology: strong nuclear condensation and augmentation
[2]; HCT-116, 6.5 mg/mL
  cancer cell morphology: strong nuclear condensation and augmentation
